Data from US20190374533A1, “COMPOUNDS AND METHODS FOR INHIBITING NHE-MEDIATED ANTIPORT IN THE TREATMENT OF DISORDERS ASSOCIATED WITH FLUID RETENTION OR SALT OVERLOAD AND GASTROINTESTINAL TRACT DISORDERS” (Ardelyx, Inc., priority 2008, published 2019).
Structures can show the parent of a compound that is named as a salt. Where two headings read alike, the source gives them in different places.

Columns and labels:
fecal water content = assay: Pharmacodynamic model: effect of test compounds on fecal water content; type: in vivo, rat; settings: female Sprague Dawley rats, 3 mg/kg oral, feces collected 16 hrs; for % Fecal water: mean of 6
Procedure: Normal female Sprague Dawlev rats (Charles-River laboratories international, Hollister, Calif.), 7-8 weeks old with body weight 175-200 g were acclimated for at least 3 days before proceeding to experiments. The animals were provided food (Harlan Teklad 2018c) and water ad lib, through the experiment. Animals were randomly grouped with 6 rats per group.
The experiments were initiated by orally dosing test compounds at 3 mg/kg in volume of 10 ml/kg. Rats from control group were gavaged with the same volume of vehicle (water). After dosing, rats were placed in metabolic cages for 16 hrs (overnight). Food and water consumption were monitored. After sixteen hours, feces and urine were collected. The percent of fecal water was measured by weighing fecal samples before and after drying.
Representative data of % fecal water content are shown in Table 12 (data are expressed as means, with 6 animals per data point). The differences between control and treated groups were evaluated by one way ANOVA with Dunnett post tests. Results are significant if p<0.05.

rat NHE-3 = target: T1, rat NHE-3 (Rattus norvegicus, UniProt P26433); assay: Cell-based assay of NHE-3 activity (Pharmacological Test Example 1); settings: for IC50: read-out: rat NHE-3 Average pIC50 (converted)
T1 construct: expressed in transfected cells; host or cells: Opossum kidney (OK) cells (ATCC), electroporated
Outline: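 Na+-dependent H+ exchange tracked with the pH-sensitive dye BCECF in opossum kidney cells transiently expressing rat NHE-3. Intracellular acidification by NH4Cl prepulse, then 10 min in ammonium- and Na+-free HEPES, pH 7.4, room temperature. Initial rates averaged over 3-6 replicates give pIC50.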

[1] = Determination of compound Cmax and AUC; type: in vivo; settings: rat; Sprague-Dawley rats, oral gavage, serum 0.5-4 h; actual oral dose (mg/kg) given
Outline: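 Sprague-Dawley rats dosed orally by gavage at 2.5 mg/kg; serum sampled at 0.5, 1, 2 and 4 h. Acetonitrile protein precipitation, then LC/MS/MS quantitation against a standard curve.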

urinary sodium levels = assay: Pharmacodynamic model: effect of test compounds on urinary sodium levels; type: in vivo, rat; settings: rats, several oral dose levels, corrected for sodium intake (FIGS. 3A and 3B)
Procedure: It is anticipated that the reduction of absorption of sodium from the intestine will be reflected in reduced levels of sodium in the urine. To test this, the protocols in Example 13 were repeated, but urine was collected in addition to feces. Urine sodium levels were analyzed by ion chromatography (IC), and the amound of sodium excreted in the urine was corrected for variations in sodium intake by measuring food consumption.

[2] = human absorption data; cited from earlier work
[3] = test system: gastrointestinal motility; assay: Restoration of gastrointestinal motility in opioid induced constipation (loperamide); type: in vivo, mice; settings: vehicle oral / loperamide s.c. (0.3 to 6 mg/kg), 30-minute period
[4] = OK cells expressing rat NHE-3, 0-30 uM test compound, 5 uM EIPA

T1 sequence (P26433 29-831): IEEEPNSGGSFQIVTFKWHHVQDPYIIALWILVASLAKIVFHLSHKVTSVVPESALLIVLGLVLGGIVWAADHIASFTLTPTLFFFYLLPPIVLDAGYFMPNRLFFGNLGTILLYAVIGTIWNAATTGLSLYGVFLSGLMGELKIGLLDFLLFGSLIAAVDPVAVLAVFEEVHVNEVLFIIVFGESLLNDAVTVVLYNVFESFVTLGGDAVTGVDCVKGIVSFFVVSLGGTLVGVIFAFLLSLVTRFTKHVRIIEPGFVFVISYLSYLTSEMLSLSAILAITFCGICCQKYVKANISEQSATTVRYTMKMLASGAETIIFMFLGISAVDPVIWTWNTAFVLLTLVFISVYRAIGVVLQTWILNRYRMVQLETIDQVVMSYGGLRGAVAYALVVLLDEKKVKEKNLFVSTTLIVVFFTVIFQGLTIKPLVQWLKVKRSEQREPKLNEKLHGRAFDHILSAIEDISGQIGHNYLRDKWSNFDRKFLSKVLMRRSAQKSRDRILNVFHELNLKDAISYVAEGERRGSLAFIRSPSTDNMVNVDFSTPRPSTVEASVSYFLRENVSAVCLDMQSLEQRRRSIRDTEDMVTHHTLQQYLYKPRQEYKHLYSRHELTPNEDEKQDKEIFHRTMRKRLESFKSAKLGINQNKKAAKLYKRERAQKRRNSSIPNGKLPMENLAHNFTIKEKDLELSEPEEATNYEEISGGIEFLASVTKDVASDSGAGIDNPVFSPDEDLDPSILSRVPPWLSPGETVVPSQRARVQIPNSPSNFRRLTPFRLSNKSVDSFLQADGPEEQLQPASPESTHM

Compound | % Fecal water (% of control) (fecal water content) | % Fecal water (fecal water content) | % FA [2] | other results
CN1Cc2c(Cl)cc(Cl)cc2C(c2cccc(S(=O)(=O)NCCOCCOCCNC(=O)c3ccc(C(=O)NCCOCCOCCNS(=O)(=O)c4cccc(C5CN(C)Cc6c(Cl)cc(Cl)cc65)c4)cc3)c2)C1 (stereo not shown) [Example 234, N1,N4-bis(2-(2-(2-(3-(6,8-dichloro-2-methyl-1,2,3,4-tetrahydroisoquinolin-4-yl)phenylsulfonamido)ethoxy)ethoxy)ethyl)terephthalamide] | 117% of control | 58% |  | rat NHE-3 Average pIC50 (rat NHE-3): 5 to 6; AUC [1]: < 2 ng·h/mL; Cmax [1]: < 2 ng/mL
CN1Cc2c(Cl)cc(Cl)cc2C(c2cccc(S(=O)(=O)NCCOCCOCCNC(=O)Nc3ccc(NC(=O)NCCOCCOCCNS(=O)(=O)c4cccc(C5CN(C)Cc6c(Cl)cc(Cl)cc65)c4)cc3)c2)C1 (stereo not shown) [Example 237, N,N′-(2,2′-(2,2′-(2,2′-(1,4-phenylenebis(azanediyl))bis(oxomethylene)bis(azanediyl)bis(ethane-2,1-diyl))bis(oxy)bis(ethane-2,1-diyl))bis(oxy)bis(ethane-2,1-diyl))bis(3-(6,8-dichloro-2-methyl-1,2,3,4-tetrahydroisoquinolin-4-yl)benzenesulfonamide)] | 120% of control | 60% |  | rat NHE-3 Average pIC50 (rat NHE-3; [4]): >7
CN1Cc2c(Cl)cc(Cl)cc2[C@H](c2ccc(S(=O)(=O)NCCOCCOCCNC(=O)COCC(=O)NCCOCCOCCNS(=O)(=O)c3ccc([C@@H]4CN(C)Cc5c(Cl)cc(Cl)cc54)cc3)cc2)C1 (single isomer, unassigned) [Example 201, 2,2′-oxybis(N-(2-(2-(2-(4-((S or R)-6,8-dichloro-2-methyl-1,2,3,4-tetrahydroisoquinolin-4-yl)phenylsulfonamido)ethoxy)ethoxy)ethyl)acetamide) bis-hydrochloride salt] | 127% of control | 63% |  | amount of sodium excreted in the urine (urinary sodium levels): diminishes significantly and dose dependently; IC50 (rat NHE-3; [4]): < 100 nM
CC(=O)Nc1ccc(OCC(O)CNC(C)C)cc1 (stereo not shown) [practolol] |  |  | 95% | 
C=CCc1ccccc1OCC(O)CNC(C)C (stereo not shown) [alprenolol] |  |  | 96% | 
O=C(O)c1cc(/N=N/c2ccc(O)c(C(=O)O)c2)ccc1O [olsalazine] |  |  | 2.3% | 
CC(C)NCC(O)COc1cccc2[nH]ccc12 (stereo not shown) [pindolol] |  |  | 92% | 
CCN1CCCC1CNC(=O)c1cc(S(N)(=O)=O)ccc1OC (stereo not shown) [sulpiride] |  |  | 36% | 
CN1Cc2c(Cl)cc(Cl)cc2[C@H](c2cccc(S(=O)(=O)NCCOCCOCCOCCNC(=O)NCCCCNC(=O)NCCOCCOCCOCCNS(=O)(=O)c3cccc([C@@H]4CN(C)Cc5c(Cl)cc(Cl)cc54)c3)c2)C1 (single isomer, unassigned) [Example 244, (S or R)—N,N′-(13,20-dioxo-3,6,9,24,27,30-hexaoxa-12,14,19,21-tetraazadotriacontane-1,32-diyl)bis(3-((S or R)-6,8-dichloro-2-methyl-1,2,3,4-tetrahydroisoquinolin-4-yl)benzenesulfonamide)] | 118% of control | 61% |  | amount of sodium excreted in the urine (urinary sodium levels): diminishes significantly and dose dependently; IC50 (rat NHE-3; [4]): < 100 nM; AUC [1]: < 15 ng·h/mL; Cmax [1]: < 7 ng/mL
CN1Cc2c(Cl)cc(Cl)cc2C(c2cccc(S(=O)(=O)NCCOCCOCCNC(=O)NCCCCNC(=O)NCCOCCOCCNS(=O)(=O)c3cccc(C4CN(C)Cc5c(Cl)cc(Cl)cc54)c3)c2)C1 (stereo not shown) [Example 236, N,N′-(10,17-dioxo-3,6,21,24-tetraoxa-9,11,16,18-tetraazahexacosane-1,26-diyl)bis(3-(6,8-dichloro-2-methyl-1,2,3,4-tetrahydroisoquinolin-4-yl)benzenesulfonamide)] | 128% of control | 64% |  | rat NHE-3 Average pIC50 (rat NHE-3; [4]): >7
CN1Cc2c(Cl)cc(Cl)cc2C(c2ccc(S(=O)(=O)NCCOCCOCCNC(=O)CCC(=O)NCCOCCOCCNS(=O)(=O)c3ccc(C4CN(C)Cc5c(Cl)cc(Cl)cc54)cc3)cc2)C1 (stereo not shown) [Example 177, N1,N4-bis(2-(2-(2-(4-(6,8-dichloro-2-methyl-1,2,3,4-tetrahydroisoquinolin-4-yl)phenylsulfonamido)ethoxy)ethoxy)ethyl)succinamide] | 121% of control | 60% |  | rat NHE-3 Average pIC50 (rat NHE-3): >7; AUC [1]: < 4 ng·h/mL; Cmax [1]: < 3.2 ng/mL
OC[C@H]1O[C@@H](O[C@@H]2[C@@H](CO)OC(O)(CO)[C@H]2O)[C@H](O)[C@@H](O)[C@H]1O (mixture of isomers) [lactulose, reference compound] |  |  | 0.6% | 
CN1Cc2c(Cl)cc(Cl)cc2[C@H](c2ccc(S(=O)(=O)NCCOCCOCCOCCNC(=O)NCCOCCOCCOCCNS(=O)(=O)c3ccc([C@@H]4CN(C)Cc5c(Cl)cc(Cl)cc54)cc3)cc2)C1 (single isomer, unassigned) [Example 250, (S or R)—N,N′-(13-oxo-3,6,9,17,20,23-hexaoxa-12,14-diazapentacosane-1,25-diyl)bis(4-((S or R)-6,8-dichloro-2-methyl-1,2,3,4-tetrahydroisoquinolin-4-yl)benzenesulfonamide)] | 120% of control | 60% |  | IC50 (rat NHE-3): < 100 nM
C=CCOc1ccccc1OCC(O)CNC(C)C (stereo not shown) [oxprenolol] |  |  | 97% | 
NC[C@H]1CC[C@H](C(=O)O)CC1 [tranexamic acid] |  |  | 55% | 
Cc1ccccc1N1C(=O)c2cc(S(N)(=O)=O)c(Cl)cc2NC1C (stereo not shown) [metolazone, Metolazone, reference compound] |  |  | 64% | 
OC[C@H]1O[C@H](OC[C@H]2O[C@H](O[C@]3(CO)O[C@H](CO)[C@@H](O)[C@@H]3O)[C@H](O)[C@@H](O)[C@@H]2O)[C@H](O)[C@@H](O)[C@H]1O [raffinose] |  |  | 0.3% | 
CN1Cc2c(Cl)cc(Cl)cc2[C@H](c2ccc(S(=O)(=O)NCCOCCOCCNC(=O)CCC(=O)NCCOCCOCCNS(=O)(=O)c3ccc([C@@H]4CN(C)Cc5c(Cl)cc(Cl)cc54)cc3)cc2)C1 (single isomer, unassigned) [Example 200, N1,N4-bis(2-(2-(2-(4-((S or R)-6,8-dichloro-2-methyl-1,2,3,4-tetrahydroisoquinolin-4-yl)phenylsulfonamido)ethoxy)ethoxy)ethyl)succinamide bis-hydrochloride salt] | 124% of control | 62% |  | IC50 (rat NHE-3; [4]): < 100 nM
OC[C@@H](O)[C@@H](O)[C@H](O)[C@H](O)CO [mannitol, Mannitol, reference compound] |  |  | 26% | 
CN(C)C(=O)C(CCN1CCC(O)(c2ccc(Cl)cc2)CC1)(c1ccccc1)c1ccccc1 [loperamide, reference compound] |  |  |  | length of the small intestine travelled by the Evans Blue dye front [3]: ~25%
Cc1cc(=O)n(-c2ccccc2)n1C [phenazone] |  |  | 97% | 
O=C(O)c1cc(/N=N/c2ccc(S(=O)(=O)Nc3ccccn3)cc2)ccc1O [sulfasalazine, reference compound] |  |  | 12% | 
O=C(O)P(=O)(O)O [foscarnet] |  |  | 17% | 
CN1Cc2c(Cl)cc(Cl)cc2C(c2ccc(S(=O)(=O)NCCOCCOCCNC(=O)COCC(=O)NCCOCCOCCNS(=O)(=O)c3ccc(C4CN(C)Cc5c(Cl)cc(Cl)cc54)cc3)cc2)C1 (stereo not shown) [Example 178, 2,2′-oxybis(N-(2-(2-(2-(4-(6,8-dichloro-2-methyl-1,2,3,4-tetrahydroisoquinolin-4-yl)phenylsulfonamido)ethoxy)ethoxy)ethyl)acetamide)] | 118% of control | 59% |  | rat NHE-3 Average pIC50 (rat NHE-3; [4]): 6 to 7; AUC [1]: < 2 ng·h/mL; Cmax [1]: < 2 ng/mL
